Data: article PMC6683251, “Flavanol Bioavailability in Two Cocoa Products with Different Phenolic Content. A Comparative Study in Humans” (Nutrients, 2019)

Assay: Urinary excretion of flavanol metabolites (0-24 h) after a single serving of soluble cocoa product (HPLC-ESI-QToF-MS)
Type: in vivo, human
Conditions: mean ± SD, n = 13; for Excreted in urine, Total: 24 h urine; for Excreted in urine, Basal: basal urine (−2–0 h, before intake)
Procedure: They were non-smoker, non-vegetarian, non-pregnant women, who were not taking any medication or nutritional supplements, and were not suffering from any chronic pathology or gastrointestinal disorder. The sample size was estimated attending to similar previous bioavailability studies. The volunteers gave their informed consent prior to participation.
The present randomized, single-blind study was carried out at the Human Nutrition Unit (HNU) of the Institute of Food Science, Technology and Nutrition (ICTAN). Volunteers attended the HNU on two days, separated by two weeks. Three days previous to each visit, participants were instructed not to consume cocoa products (chocolate, soluble cocoa, etc.), juices, tea, wine, grape must, oranges, tangerines, apples, grapes, strawberries or other berries, beets, onions, soybeans and soy derivatives.
On each intervention day, volunteers arrived at the HNU after an overnight fast. […] The soluble cocoa products, either 15 g of CC or 25 g CC-PP, were dissolved in 200 mL of semi-skimmed milk following manufacturer’s preparation instructions. Plasma was separated by centrifugation (10 min, 3000 rpm, 4 °C) and stored at −80 °C until further analysis. […] A polyphenol-free breakfast, lunch and afternoon snack were provided 2 h, 4 h, and 8 h after consumption of cocoa products, and water and isotonic beverages were available ad libitum.
Urine samples were diluted with an equivalent volume of Milli-Q water (50%) and centrifuged at 14000 rpm (10 min, 4 °C). Supernatants were filtered (0.45 μm pore-size cellulose-acetate membrane filters) and a 5 µL aliquot was directly injected into the LC-ESI-QToF-MS equipment.
The test samples, either 30 μL of the plasma extract or 5 μL of diluted urine, were injected and separated using a mobile phase consisting of Milli-Q water (phase A) and acetonitrile (phase B), both containing 0.1% formic acid, at a flow rate of 0.3 mL/min. The mobile phase was initially programmed with 90% of solvent A and 10% of B. The elution program increased to 30% of solvent B in 10 min. Then, the initial conditions (10% solvent B) were recovered in 5 min and maintained for 5 min.
Due to the lack of standards for certain phase II metabolites, they were tentatively quantified using the calibration curves of their corresponding phenolic precursors. […] The rest of microbial metabolites identified, derivatives of hydroxyphenylpropionic, hydroxyphenylacetic, hydroxybenzoic and hippuric acids, were quantified using their respective commercially available standards. Urine concentration of the excreted metabolites was normalized by the volume excreted in each studied interval. […] Calibration curves were freshly prepared in a pool of both plasma and urine due to matrix effects.
Statistical analyses were carried out using the program SPSS (version 23.0, SPSS, Inc., IBM Company, New York, NY, USA). Significant differences between metabolites excreted in urine after consumption of CC and CC-PP cocoa products were evaluated based on non-parametric Wilcoxon test (p < 0.05). To determine the absorption and elimination of epicatechin metabolites after consumption of the soluble cocoa products, metabolite nutrikinetics were studied using the pharmacokinetic functions of Microsoft Excel, calculating the maximum concentration (Cmax), area under curve (AUC) and time to reach maximum concentration (Tmax). Data are expressed as mean ± standard deviation.

[1] = after CC-PP (68.25 mg flavanols)

## 4-Hydroxy-5-(hydroxyphenyl)valeric acid-glucuronide [HHPVA-glucuronide]
[1]
  Excreted in urine, Total: 1.052 ± 0.182 µmol
  Excreted in urine, 0–4 h: <L.Q.
  Excreted in urine, 4–8 h: 0.714 ± 0.088 µmol
  Excreted in urine, 8–12 h: 0.087 ± 0.019 µmol
  Excreted in urine, 12–24 h: 0.251 ± 0.075 µmol

## COc1ccc([C@H]2Oc3cc(O)cc(OS(=O)(=O)O)c3C[C@H]2O)cc1O (single isomer, unassigned) [Epicatechin-methoxy-sulfate (isomer 3), Epicatechin-methoxy-sulfate]
After CC (19.80 mg flavanols)
  Excreted in urine, Total: 0.758 ± 0.125 µmol
  Excreted in urine, 0–4 h: 0.473 ± 0.089 µmol
  Excreted in urine, 4–8 h: 0.285 ± 0.036 µmol
  Excreted in urine, 8–12 h: <L.Q.
[1]
  Excreted in urine, Total: 2.354 ± 0.402 µmol
  Excreted in urine, 0–4 h: 1.702 ± 0.243 µmol
  Excreted in urine, 4–8 h: 0.652 ± 0.148 µmol
  Excreted in urine, 8–12 h: <L.Q.
  Excreted in urine, 12–24 h: <L.Q.

## O=C(O)Cc1ccc(O)c(O)c1 [3,4-Dihydroxyphenylacetic acid]
CC intervention
  Excreted in urine, Basal: 0.094 ± 0.032 µmol
CC-PP intervention
  Excreted in urine, Basal: 0.109 ± 0.015 µmol
After CC (19.80 mg flavanols)
  Excreted in urine, Total: 1.525 ± 0.974 µmol
  Excreted in urine, 0–4 h: 0.648 ± 0.505 µmol
  Excreted in urine, 4–8 h: 0.556 ± 0.379 µmol
  Excreted in urine, 8–12 h: 0.094 ± 0.033 µmol
  Excreted in urine, 12–24 h: 0.133 ± 0.020 µmol
[1]
  Excreted in urine, Total: 2.153 ± 0.401 µmol
  Excreted in urine, 0–4 h: 0.751 ± 0.057 µmol
  Excreted in urine, 4–8 h: 0.556 ± 0.096 µmol
  Excreted in urine, 8–12 h: 0.198 ± 0.037 µmol
  Excreted in urine, 12–24 h: 0.539 ± 0.196 µmol

## O=C(O)CCc1ccc(O)c(O)c1 [3,4-Dihydroxyphenylpropionic acid]
CC intervention
  Excreted in urine, Basal: 0.117 ± 0.024 µmol
CC-PP intervention
  Excreted in urine, Basal: 0.213 ± 0.031 µmol
After CC (19.80 mg flavanols)
  Excreted in urine, Total: 0.866 ± 0.148 µmol
  Excreted in urine, 0–4 h: 0.217 ± 0.051 µmol
  Excreted in urine, 4–8 h: 0.243 ± 0.039 µmol
  Excreted in urine, 8–12 h: 0.074 ± 0.017 µmol
  Excreted in urine, 12–24 h: 0.215 ± 0.016 µmol
[1]
  Excreted in urine, Total: 1.117 ± 0.131 µmol
  Excreted in urine, 0–4 h: 0.256 ± 0.027 µmol
  Excreted in urine, 4–8 h: 0.238 ± 0.028 µmol
  Excreted in urine, 8–12 h: 0.109 ± 0.016 µmol
  Excreted in urine, 12–24 h: 0.301 ± 0.029 µmol

## COc1cc(CC(=O)O)ccc1O [3-Methoxy-4-hydroxyphenylacetic acid]
CC intervention
  Excreted in urine, Basal: 0.103 ± 0.014 µmol
CC-PP intervention
  Excreted in urine, Basal: 0.198 ± 0.071 µmol
After CC (19.80 mg flavanols)
  Excreted in urine, Total: 0.398 ± 0.118 µmol
  Excreted in urine, 0–4 h: 0.099 ± 0.054 µmol
  Excreted in urine, 4–8 h: 0.093 ± 0.028 µmol
  Excreted in urine, 8–12 h: <L.Q.
  Excreted in urine, 12–24 h: 0.103 ± 0.022 µmol
[1]
  Excreted in urine, Total: 0.648 ± 0.178 µmol
  Excreted in urine, 0–4 h: 0.188 ± 0.026 µmol
  Excreted in urine, 4–8 h: 0.124 ± 0.050 µmol
  Excreted in urine, 8–12 h: <L.Q.
  Excreted in urine, 12–24 h: 0.138 ± 0.016 µmol

## COc1cc(CCC(=O)O)ccc1O [3-Methoxy-4-hydroxyphenylpropionic acid]
CC intervention
  Excreted in urine, Basal: 0.104 ± 0.027 µmol
CC-PP intervention
  Excreted in urine, Basal: 0.077 ± 0.032 µmol
After CC (19.80 mg flavanols)
  Excreted in urine, Total: 0.248 ± 0.071 µmol
  Excreted in urine, 0–4 h: 0.144 ± 0.044 µmol
  Excreted in urine, 4–8 h: <L.Q.
  Excreted in urine, 8–12 h: <L.Q.
  Excreted in urine, 12–24 h: <L.Q.
[1]
  Excreted in urine, Total: 0.461 ± 0.138 µmol
  Excreted in urine, 0–4 h: 0.175 ± 0.054 µmol
  Excreted in urine, 4–8 h: <L.Q.
  Excreted in urine, 8–12 h: <L.Q.
  Excreted in urine, 12–24 h: 0.199 ± 0.052 µmol

## O=C(O)CCC(O)Cc1ccc(O)c(O)c1 (centres unmarked) [HDHPVA, 4-Hydroxy-5-(3′,4′-dihydroxyphenyl)valeric acid]
After CC (19.80 mg flavanols)
  Excreted in urine, Total: <L.Q.
  Excreted in urine, 4–8 h: <L.Q.
  Excreted in urine, 8–12 h: <L.Q.
  Excreted in urine, 12–24 h: <L.Q.
[1]
  Excreted in urine, Total: <L.Q.
  Excreted in urine, 0–4 h: <L.Q.
  Excreted in urine, 4–8 h: <L.Q.
  Excreted in urine, 8–12 h: <L.Q.
  Excreted in urine, 12–24 h: <L.Q.
